Experimental data as given in patent US10551384B2, “MTOR kinase mutations and methods of use thereof” (RUTGERS, THE STATE UNIVERSITY OF NEW JERSEY, priority 2016, dated 2020).
“Also recorded” adds a separate entry of the source.

How the values were obtained:
[1] = tested on: xenograft tumors derived from SW480 cells carrying homozygous mTOR(L2185A) alleles; experiment: SW480 xenograft tumor model, mTOR(L2185A); type: in vivo, mice
Method: (§1) FIGS. 6A-E. L2185A mutation renders resistance of xenograft tumors to mTOR kinase inhibitors. (FIG. 6A) Mice bearing xenograft tumors derived from SW480 cells expressing WT mTOR were administered with INK128 at 1 mg/kg or 0.3 mg/kg, once daily via intraperitoneal injection. Shown are representative animals and excised tumors after drug treatment. (FIG. 6B) Same as FIG. 6A except xenograft tumors were derived from SW480 carrying homozygous mTOR(L2185A) alleles. (FIG. 6C) Tumor volume measurement for SW480 xenograft tumors expressing mTOR (WT) (expressed as means±SD; n=8, *P<0.01, vs. vehicle control). (FIG. 6D) Tumor volume measurement for SW480 xenograft tumors expressing mTOR(L2185A) mutant (expressed as means±SD; n=8). (FIG. 6E) Tissue extracts from xenograft tumors at the end of treatment with or without 1 mg/kg INK128 were analyzed for the level of P-S6K, S6K, P-S6, S6, P-4E-BP1, 4E-BP1, P-AKT and AKT was analyzed by immunoblot. Six tumor samples from each animal group were shown with each lane representing an individual tumor sample.
(§2) Female athymic NCr-nu/nu mice (4-6 weeks old) were obtained from Taconic Farms. […] Tumor volume was calculated by the following formula: tumor volume (mm^3)=(shorter diameter^2× longer diameter)/2 and are presented as means±SD (n=8) (Zhang, Y., and Zheng, X. (2012). Cell Cycle 11, 594-603). […]

[2] = tested on: xenograft tumors derived from SW480 cells expressing WT mTOR; experiment: SW480 xenograft tumor model, WT mTOR; type: in vivo, mice
Method: as §1, §2

[3] = tested on: mTORC1 and mTORC2 signaling in SW480 mTOR(L2185A) cells; experiment: mTORC1/mTORC2 signaling immunoblot in SW480 cells carrying L2185A mutant mTOR; type: cell-based, human; settings: various concentrations, 1 hr, immunoblot of P-S6K, P-4E-BP1, P-AKT
Method: (FIG. 5A) SW480 cells carrying homozygous WT mTOR or L2185A mutant alleles were treated with various concentrations of AZD8055, INK-128, OSI-027 and PP242 for 2 day. Growth of SW480 cells was measured by SRB assay. Data represent means±SD in three independent experiments. (FIG. 5B) SW480 cells carrying homozygous WT and L2185A mutant mTOR allele were treated with a single dose of AZD8055 (100 nM), INK-128 (100 nM), OSI-027 (6,000 nM), and PP242 (2,000 nM) for different times. Cell growth was measured by SRB assay. The drug carrier DMSO was used as a control. Data represent means±SD in three independent experiments. (FIG. 5C) SW480 cells carrying homozygous WT and L2185A mutant mTOR were treated with various concentrations of INK-128, OSI-027, AZD8055 and PP242 for 1 hr. The effect on the level of P-S6K, S6K, P-4E-BP1, 4EB-P1, P-AKT and AKT was analyzed by immunoblot. […] The growth of SW480 cells was measured by SRB assay. Data represent means±SD in three independent experiments.
Antibodies against tubulin, S6K, phospho-S6K (Thr389), 4E-BP1, phospho-4E-BP1 (Thr37/46), Akt, phospho-Akt (Thr308), and phospho-Akt (Ser473) were purchased from Cell Signaling Technology. […] For drug sensitivity test, cancer cells were seeded in 96-well plates at a density of 2,000 cells per well. 24 hours later, different concentrations of mTOR inhibitors were added in quadruplicate. Cell growth was measured by the sulforhodamine B (SRB) assay as previously described (Vichai, V., and Kirtikara, K. (2006). Nature protocols 1, 1112-1116).

[4] = tested on: TOR2-mTOR L2185A mutant; experiment: Yeast spotting assay for drug resistance, TOR2-mTOR L2185A; type: cell-based, S. cerevisiae; settings: 37° C., amphotericin B present (except OSI-027)
Excerpt: FIGS. 4A-C. […] (FIG. 4A) Scheme of a yeast-based screen for drug-resistant mutations in mTOR kinase domain. mTOR kinase domain is amplified by error-prone PCR to generate randomized mutations, which is then recombined in frame into the TOR2-mTOR plasmid by gap-repair in tort-dg cells, and is selected on SC-leucine minus plates. Replica plating is then made onto SC-leucine plates containing DMSO or mTOR kinase inhibitor for selection of drug resistant clones. (FIG. 4B) tor2-dg cells expressing WT or mutant TOR2-mTOR were serially diluted by 10-fold and assayed for sensitivity to different mTOR kinase inhibitors in the presence of amphotericin B. Vector and TOR2 were used as controls. Drug resistant assay was performed at 37° C. in the presence of amphotericin B (except OSI-027). (FIG. 4C) Systematic mutational analysis of L2185 on drug resistance. tort-dg cells expressing WT or mutant TOR2-mTOR carrying all possible mutations at L2185 were serially diluted by 10-fold and tested for sensitivity to different mTOR kinase inhibitors at 37° C.
To enhance yeast cell permeability, log phase W303 tort-dg cells were spread evenly on SD-Leu agarose plates. After drying, small sterile filter discs were placed on the surface and 5 μl of indicated mTOR inhibitors or DMSO were applied to each disc with or without adding 5 μl of amphotericin B (10 μM), miconazole (50 μM) or caspofungin (50 μM). Plates were incubated at 37° C. for 3 day. Drug resistance profiles of TOR2-mTOR mutant cells were determined by the spotting assay. For this assay, 10-fold serial dilutions of cells were spotted on SD-leu plates in the presence of indicated mTOR inhibitors with or without amphotericin B (200 nM) and incubated at 37° C. for 3 day.

[5] = 1 mg/kg or 0.3 mg/kg once daily, intraperitoneal injection
[6] = 1 mg/kg, tumor extracts at end of treatment, immunoblot

Question: `CC(C)n1nc(-c2ccc3oc(N)nc3c2)c2c(N)ncnc21` [INK128] was tested. Which “growth of mTOR(L2185A) xenograft tumors” value [1, 5] did it give?
Answer: little or no effect

Question: And the “mTORC1 and mTORC2 signaling in mTOR(L2185A) xenograft tumors” value [1, 6]?
Answer: drug-resistance in mTORC1 and mTORC2 signaling

Question: What about the “growth of WT mTOR xenograft tumors” value [2, 5] of the same molecule?
Answer: strongly attenuates growth

Question: What about the “mTOR signaling in WT mTOR xenograft tumors” value [2, 6] of the same molecule?
Answer: complete blockadge of mTOR signaling

Question: And the “drug resistance of mTORC1 and mTORC2 signaling, SW480 L2185A vs WT” value [3]?
Answer: drug-resistant signaling by both mTORC1 and mTORC2

Question: What about the “drug resistance/sensitivity of TOR2-mTOR L2185A mutant yeast” value [4] of the same molecule?
Answer: confer resistance; also recorded: conferring resistance
